Among the data in ChEMBL document CHEMBL5678818, “Discovery of potent SOS1 inhibitors that block RAS activation via disruption of the RAS-SOS1 interaction” (Proc Natl Acad Sci U S A, 2019) are Activity values, retold here.

The target in assay [1] is Ribosomal protein S6 kinase beta-1 (Homo sapiens) (UniProt P23443). Description: Inhibition of S6K1 (unknown origin) assessed as residual activity at 100 nM by KINOMEscan analysis relative to control.
The target in assay [2] is T1, Serine/threonine-protein kinase PLK4 (Homo sapiens) (UniProt O00444).
T1 sequence (whole entry): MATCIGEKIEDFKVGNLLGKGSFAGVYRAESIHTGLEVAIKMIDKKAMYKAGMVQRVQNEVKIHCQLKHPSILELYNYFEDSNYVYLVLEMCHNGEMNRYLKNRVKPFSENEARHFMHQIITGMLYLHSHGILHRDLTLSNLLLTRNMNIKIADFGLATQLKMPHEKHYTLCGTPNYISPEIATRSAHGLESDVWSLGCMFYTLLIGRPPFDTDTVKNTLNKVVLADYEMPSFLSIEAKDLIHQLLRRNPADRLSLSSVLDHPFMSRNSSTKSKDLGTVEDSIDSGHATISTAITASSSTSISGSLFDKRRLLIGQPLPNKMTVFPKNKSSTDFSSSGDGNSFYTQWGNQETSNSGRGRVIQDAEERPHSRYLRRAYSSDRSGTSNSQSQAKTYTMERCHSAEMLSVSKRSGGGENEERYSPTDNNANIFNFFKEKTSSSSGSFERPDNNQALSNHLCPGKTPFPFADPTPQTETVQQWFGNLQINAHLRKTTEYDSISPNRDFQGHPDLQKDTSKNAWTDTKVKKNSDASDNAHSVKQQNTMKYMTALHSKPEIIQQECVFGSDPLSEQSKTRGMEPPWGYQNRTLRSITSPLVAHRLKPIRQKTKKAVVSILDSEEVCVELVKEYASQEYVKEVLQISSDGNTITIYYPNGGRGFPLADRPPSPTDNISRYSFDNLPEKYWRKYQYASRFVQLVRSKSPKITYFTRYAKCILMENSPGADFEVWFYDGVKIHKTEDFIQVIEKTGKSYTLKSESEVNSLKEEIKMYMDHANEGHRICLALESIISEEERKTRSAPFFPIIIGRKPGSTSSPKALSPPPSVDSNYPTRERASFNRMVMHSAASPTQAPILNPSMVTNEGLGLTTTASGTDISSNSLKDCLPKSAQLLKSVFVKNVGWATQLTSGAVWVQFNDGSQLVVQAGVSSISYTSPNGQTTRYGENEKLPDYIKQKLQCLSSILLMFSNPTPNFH
The experiment in a line: Inhibition of PLK4 (unknown origin) assessed as residual activity at 100 nM by KINOMEscan analysis relative to control.

Assay [3] concerns the target Cyclin-dependent kinase 8 (Homo sapiens) (UniProt P49336). Description: Inhibition of CDK8 (unknown origin) assessed as residual activity at 100 nM by KINOMEscan analysis relative to control.
Assay [4] concerns the target Receptor tyrosine-protein kinase erbB-2 (Homo sapiens) (UniProt P04626). The experiment in a line: Inhibition of ERBB2 (unknown origin) assessed as residual activity at 100 nM by KINOMEscan analysis relative to control.
For assay [5], the target named is T2, Phosphatidylinositol 5-phosphate 4-kinase type-2 gamma (Homo sapiens) (UniProt Q8TBX8).
T2 sequence (whole entry): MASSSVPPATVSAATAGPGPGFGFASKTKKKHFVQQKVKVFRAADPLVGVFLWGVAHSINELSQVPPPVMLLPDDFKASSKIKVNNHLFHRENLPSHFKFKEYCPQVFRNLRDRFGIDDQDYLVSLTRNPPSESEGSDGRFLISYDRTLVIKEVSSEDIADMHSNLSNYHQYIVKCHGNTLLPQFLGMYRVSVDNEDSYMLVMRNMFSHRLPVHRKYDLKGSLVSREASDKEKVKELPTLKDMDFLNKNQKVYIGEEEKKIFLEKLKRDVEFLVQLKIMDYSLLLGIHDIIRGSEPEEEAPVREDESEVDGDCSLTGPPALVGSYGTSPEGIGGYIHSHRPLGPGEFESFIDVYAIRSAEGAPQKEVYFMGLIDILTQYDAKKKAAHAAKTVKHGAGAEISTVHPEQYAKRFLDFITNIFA
The experiment in a line: Inhibition of PIP5K2C (unknown origin) assessed as residual activity at 100 nM by KINOMEscan analysis relative to control.

The target in assay [6] is Serine/threonine-protein kinase MAK (Homo sapiens) (UniProt P20794). Description: Inhibition of MAK (unknown origin) assessed as residual activity at 100 nM by KINOMEscan analysis relative to control.
Serine/threonine-protein kinase MAK (Homo sapiens), sequence (P20794 whole entry, looked up): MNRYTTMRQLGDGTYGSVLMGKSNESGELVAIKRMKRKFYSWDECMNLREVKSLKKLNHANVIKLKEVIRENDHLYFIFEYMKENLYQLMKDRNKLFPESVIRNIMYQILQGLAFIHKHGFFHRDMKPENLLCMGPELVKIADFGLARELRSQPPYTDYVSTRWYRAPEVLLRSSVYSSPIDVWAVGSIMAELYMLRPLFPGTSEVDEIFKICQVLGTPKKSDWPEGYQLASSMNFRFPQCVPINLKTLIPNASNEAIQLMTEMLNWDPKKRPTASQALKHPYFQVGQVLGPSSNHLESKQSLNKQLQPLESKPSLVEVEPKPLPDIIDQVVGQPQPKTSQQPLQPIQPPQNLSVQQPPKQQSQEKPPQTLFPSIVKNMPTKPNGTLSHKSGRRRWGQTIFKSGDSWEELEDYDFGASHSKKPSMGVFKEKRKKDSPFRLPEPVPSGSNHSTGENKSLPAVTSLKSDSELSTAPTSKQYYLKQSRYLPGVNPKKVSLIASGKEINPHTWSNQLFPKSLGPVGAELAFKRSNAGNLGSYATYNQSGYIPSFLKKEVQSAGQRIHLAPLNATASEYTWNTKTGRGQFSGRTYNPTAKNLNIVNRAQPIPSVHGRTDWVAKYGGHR
Assay [7] has as its target Serine/threonine-protein kinase 24 (Homo sapiens) (UniProt Q9Y6E0). The experiment in a line: Inhibition of MST3 (unknown origin) assessed as residual activity at 100 nM by KINOMEscan analysis relative to control.
The target in assay [8] is T3, Serine/threonine-protein kinase NLK (Homo sapiens) (UniProt Q9UBE8).
T3 sequence (whole entry): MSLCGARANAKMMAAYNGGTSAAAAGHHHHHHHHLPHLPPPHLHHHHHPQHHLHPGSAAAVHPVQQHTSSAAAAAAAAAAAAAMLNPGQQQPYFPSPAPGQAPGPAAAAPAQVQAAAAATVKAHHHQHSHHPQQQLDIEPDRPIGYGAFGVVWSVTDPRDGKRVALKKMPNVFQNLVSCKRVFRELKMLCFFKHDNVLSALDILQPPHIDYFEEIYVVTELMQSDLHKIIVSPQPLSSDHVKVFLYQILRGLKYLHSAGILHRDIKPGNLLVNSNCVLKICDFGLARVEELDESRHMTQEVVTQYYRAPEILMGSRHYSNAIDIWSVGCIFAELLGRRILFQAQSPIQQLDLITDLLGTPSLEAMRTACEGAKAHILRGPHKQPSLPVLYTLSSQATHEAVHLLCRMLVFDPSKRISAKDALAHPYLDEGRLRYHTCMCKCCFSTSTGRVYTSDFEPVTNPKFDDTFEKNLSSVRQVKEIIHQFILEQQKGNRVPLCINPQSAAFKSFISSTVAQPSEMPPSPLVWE
Description: Inhibition of NLK (unknown origin) assessed as residual activity at 100 nM by KINOMEscan analysis relative to control.

Assay [9] has as its target Serine/threonine-protein kinase WNK4 (Homo sapiens) (UniProt Q96J92). Description: Inhibition of WNK4 (unknown origin) assessed as residual activity at 1000 nM by KINOMEscan analysis relative to control.

Serine/threonine-protein kinase WNK4 (Homo sapiens), sequence (Q96J92 whole entry): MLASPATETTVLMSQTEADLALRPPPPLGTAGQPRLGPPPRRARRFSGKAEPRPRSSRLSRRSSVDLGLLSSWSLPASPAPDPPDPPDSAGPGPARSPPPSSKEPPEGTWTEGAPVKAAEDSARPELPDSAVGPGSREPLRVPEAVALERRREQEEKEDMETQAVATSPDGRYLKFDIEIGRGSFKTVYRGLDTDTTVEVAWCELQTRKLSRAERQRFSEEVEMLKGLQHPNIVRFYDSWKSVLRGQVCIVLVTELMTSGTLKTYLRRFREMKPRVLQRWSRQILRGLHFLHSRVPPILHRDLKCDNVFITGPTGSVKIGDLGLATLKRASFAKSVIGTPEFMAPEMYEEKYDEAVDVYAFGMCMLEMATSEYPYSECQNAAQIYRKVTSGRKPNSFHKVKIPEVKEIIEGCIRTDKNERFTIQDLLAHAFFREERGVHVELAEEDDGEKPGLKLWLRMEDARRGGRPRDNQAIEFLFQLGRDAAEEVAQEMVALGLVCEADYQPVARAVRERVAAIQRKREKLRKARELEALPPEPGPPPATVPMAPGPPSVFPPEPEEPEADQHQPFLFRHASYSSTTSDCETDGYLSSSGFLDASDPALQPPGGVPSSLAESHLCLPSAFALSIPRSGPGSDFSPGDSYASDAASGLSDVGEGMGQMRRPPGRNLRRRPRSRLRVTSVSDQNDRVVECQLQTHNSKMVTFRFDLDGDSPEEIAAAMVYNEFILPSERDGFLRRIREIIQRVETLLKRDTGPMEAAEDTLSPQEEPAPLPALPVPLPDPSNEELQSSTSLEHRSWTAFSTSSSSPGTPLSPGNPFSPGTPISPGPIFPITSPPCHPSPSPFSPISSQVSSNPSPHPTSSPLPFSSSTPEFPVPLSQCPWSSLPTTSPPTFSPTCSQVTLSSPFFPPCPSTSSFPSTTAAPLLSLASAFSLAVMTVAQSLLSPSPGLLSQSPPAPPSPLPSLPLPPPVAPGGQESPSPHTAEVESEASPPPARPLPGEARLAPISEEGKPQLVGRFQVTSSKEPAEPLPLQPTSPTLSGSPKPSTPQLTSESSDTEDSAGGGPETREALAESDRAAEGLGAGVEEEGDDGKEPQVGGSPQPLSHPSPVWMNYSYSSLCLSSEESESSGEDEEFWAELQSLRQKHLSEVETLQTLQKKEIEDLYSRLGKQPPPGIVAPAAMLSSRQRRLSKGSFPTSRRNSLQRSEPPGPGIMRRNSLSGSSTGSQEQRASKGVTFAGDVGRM
Cyclin-dependent kinase 8 (Homo sapiens), sequence (P49336 whole entry): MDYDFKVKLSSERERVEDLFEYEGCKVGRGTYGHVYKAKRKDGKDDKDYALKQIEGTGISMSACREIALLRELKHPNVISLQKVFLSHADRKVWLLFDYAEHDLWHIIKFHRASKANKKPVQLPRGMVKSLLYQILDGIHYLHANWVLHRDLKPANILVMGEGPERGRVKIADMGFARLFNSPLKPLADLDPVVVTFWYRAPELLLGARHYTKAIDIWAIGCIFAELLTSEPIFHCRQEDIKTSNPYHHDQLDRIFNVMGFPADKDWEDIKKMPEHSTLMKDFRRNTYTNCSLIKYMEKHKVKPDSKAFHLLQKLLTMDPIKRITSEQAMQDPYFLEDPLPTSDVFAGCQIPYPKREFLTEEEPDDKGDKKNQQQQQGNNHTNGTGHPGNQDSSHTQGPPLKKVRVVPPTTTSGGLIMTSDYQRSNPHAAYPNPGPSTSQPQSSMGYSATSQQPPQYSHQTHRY
Receptor tyrosine-protein kinase erbB-2 (Homo sapiens), sequence (P04626 whole entry): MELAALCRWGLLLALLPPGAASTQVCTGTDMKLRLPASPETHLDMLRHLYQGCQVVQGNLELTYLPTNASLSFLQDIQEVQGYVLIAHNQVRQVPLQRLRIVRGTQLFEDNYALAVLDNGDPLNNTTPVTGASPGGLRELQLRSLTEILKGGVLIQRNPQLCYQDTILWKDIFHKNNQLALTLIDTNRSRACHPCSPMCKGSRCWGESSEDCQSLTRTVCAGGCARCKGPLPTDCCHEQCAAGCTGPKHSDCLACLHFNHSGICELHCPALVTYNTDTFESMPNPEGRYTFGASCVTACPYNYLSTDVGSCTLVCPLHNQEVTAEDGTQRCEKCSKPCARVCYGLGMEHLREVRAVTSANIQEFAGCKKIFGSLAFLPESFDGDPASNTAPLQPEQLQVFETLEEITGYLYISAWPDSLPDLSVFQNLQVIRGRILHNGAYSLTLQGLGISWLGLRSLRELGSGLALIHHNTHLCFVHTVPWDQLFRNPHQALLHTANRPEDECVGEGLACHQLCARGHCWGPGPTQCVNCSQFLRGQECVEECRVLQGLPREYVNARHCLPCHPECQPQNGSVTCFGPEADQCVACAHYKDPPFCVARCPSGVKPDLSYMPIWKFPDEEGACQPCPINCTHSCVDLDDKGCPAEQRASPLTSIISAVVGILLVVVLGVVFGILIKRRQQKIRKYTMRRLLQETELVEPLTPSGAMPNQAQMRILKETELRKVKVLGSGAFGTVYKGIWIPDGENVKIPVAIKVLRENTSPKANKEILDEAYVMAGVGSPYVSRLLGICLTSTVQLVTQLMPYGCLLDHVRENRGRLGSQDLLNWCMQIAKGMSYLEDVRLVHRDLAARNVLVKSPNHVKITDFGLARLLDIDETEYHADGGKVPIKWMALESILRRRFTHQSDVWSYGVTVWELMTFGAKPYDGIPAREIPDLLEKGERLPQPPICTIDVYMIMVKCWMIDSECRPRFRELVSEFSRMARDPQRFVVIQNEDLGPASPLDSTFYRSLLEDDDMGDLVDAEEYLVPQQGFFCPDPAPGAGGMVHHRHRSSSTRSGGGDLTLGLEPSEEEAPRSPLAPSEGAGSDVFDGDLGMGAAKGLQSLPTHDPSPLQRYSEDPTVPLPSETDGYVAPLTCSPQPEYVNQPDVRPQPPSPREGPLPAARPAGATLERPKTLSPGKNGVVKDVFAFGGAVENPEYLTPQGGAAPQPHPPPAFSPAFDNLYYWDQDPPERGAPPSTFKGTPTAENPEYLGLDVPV
Ribosomal protein S6 kinase beta-1 (Homo sapiens), sequence (P23443 whole entry, looked up): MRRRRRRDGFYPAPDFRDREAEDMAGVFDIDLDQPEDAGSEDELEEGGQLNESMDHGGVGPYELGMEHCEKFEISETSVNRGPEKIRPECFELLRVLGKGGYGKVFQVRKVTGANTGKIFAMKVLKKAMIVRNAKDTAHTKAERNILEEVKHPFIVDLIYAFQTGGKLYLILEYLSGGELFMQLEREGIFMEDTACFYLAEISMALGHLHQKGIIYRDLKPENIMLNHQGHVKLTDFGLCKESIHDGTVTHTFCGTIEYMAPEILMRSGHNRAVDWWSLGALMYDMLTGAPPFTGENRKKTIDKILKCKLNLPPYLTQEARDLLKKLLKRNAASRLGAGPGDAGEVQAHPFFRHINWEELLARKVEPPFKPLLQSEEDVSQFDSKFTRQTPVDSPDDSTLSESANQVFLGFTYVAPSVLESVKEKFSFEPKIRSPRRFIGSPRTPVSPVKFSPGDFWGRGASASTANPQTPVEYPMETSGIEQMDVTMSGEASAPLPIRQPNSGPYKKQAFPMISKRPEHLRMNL
Serine/threonine-protein kinase 24 (Homo sapiens), sequence (Q9Y6E0 whole entry, looked up): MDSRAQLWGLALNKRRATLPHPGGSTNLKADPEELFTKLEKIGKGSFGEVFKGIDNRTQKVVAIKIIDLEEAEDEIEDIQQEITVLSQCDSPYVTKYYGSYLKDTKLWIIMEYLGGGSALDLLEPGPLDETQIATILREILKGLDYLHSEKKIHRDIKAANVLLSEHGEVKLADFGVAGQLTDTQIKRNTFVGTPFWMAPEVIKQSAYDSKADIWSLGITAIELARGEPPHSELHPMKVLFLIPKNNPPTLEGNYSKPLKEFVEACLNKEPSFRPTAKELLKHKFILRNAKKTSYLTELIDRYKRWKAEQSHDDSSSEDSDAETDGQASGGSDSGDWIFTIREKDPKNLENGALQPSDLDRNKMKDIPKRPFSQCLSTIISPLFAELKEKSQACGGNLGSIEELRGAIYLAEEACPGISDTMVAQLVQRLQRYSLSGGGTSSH

As to `COc1cc2ncnc(N[C@H](C)c3cccc4ccccc34)c2cc1OC`, the Activity in assay [1] worked out at 77%; in assay [2], 87%; in [3] it was 91%; in [4], 84%; in [5], 96%; in assay [6], 100%. The Activity in assay [7] was 99%; in assay [8], 82%.

As to `COc1cc2nc(C)nc(N[C@H](C)c3cccc(-c4cn[nH]c4)c3)c2cc1OC`, in assay [9], the Activity stood at 100%.
